In ChEMBL document CHEMBL1201862, “PubChem BioAssay data set” (2004):
Calls of active or inactive are those of the source.

Experiments:
[1] = target: T1, Corticotropin-releasing factor receptor 2/Corticotropin-releasing factor-binding protein (Homo sapiens, UniProt P24387+Q13324); assay: Dose Response confirmation of uHTS hits for small molecule antagonists of the CRF-binding protein and CRF-R2 receptor complex.; format: functional; conditions: read-out: IC50_Mean
T1 sequence (Q13324 whole entry): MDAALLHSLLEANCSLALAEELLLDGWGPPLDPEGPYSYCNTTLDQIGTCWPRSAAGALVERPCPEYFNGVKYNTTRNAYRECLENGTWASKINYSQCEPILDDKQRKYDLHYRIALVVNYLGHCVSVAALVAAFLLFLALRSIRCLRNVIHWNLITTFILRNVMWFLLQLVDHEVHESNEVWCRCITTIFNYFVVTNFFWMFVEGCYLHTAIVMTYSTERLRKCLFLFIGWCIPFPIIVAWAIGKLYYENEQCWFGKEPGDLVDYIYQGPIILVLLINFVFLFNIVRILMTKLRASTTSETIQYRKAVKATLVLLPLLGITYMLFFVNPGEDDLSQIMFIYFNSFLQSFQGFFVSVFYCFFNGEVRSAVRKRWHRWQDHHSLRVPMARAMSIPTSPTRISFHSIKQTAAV
T1 sequence (P24387 whole entry): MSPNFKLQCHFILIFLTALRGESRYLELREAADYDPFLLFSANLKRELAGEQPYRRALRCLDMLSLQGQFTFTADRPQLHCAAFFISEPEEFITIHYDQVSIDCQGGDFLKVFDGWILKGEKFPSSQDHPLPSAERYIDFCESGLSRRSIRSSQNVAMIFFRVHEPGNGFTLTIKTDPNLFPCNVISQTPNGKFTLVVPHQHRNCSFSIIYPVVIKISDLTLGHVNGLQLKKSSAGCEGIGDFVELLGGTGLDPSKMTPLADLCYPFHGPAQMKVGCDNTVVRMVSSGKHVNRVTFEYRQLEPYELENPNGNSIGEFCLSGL

[2] = target: T1, Corticotropin-releasing factor receptor 2/Corticotropin-releasing factor-binding protein; assay: activators of CRF receptor 2 with binding protein – uHTS hits, confirmation (AID 602473); format: functional; conditions: read-out: EC50_Mean
[3] = target: T2, Heat shock factor protein 1 (Mus musculus, UniProt P38532); assay: enhancement of HSF1-driven luciferase signal – cell-based, NIH3T3, luminescence, dose retest, confirmation (AID 435004); format: functional;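 note: stress induced by proteasome inhibitor MG132 added 30 min after compound; luciferase reporter driven by HSF1 response element in NIH3T3 cells; actives raise luminescence as potentiators of the MG132 stress response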
T2 sequence (P38532 whole entry): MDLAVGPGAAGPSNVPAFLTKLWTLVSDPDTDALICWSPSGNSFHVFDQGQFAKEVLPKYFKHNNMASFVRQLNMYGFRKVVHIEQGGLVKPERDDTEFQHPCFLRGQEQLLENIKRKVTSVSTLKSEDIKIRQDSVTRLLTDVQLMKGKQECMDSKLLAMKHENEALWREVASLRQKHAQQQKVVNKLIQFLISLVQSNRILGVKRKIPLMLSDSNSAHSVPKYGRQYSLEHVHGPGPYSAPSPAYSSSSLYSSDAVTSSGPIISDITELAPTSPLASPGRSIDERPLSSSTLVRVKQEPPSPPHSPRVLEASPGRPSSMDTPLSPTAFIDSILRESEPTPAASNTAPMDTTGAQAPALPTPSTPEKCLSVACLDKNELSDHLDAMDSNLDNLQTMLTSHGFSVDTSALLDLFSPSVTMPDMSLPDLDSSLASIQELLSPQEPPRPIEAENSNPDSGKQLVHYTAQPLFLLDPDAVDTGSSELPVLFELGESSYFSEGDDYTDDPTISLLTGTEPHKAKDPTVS

cells = format: functional
INS1 = assay: INS-1E survival protection against cytokine death – cell-based, luminescence, retest, dose response (AID 449756); format: functional; conditions: Rattus norvegicus;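 note: cell death triggered by IL-1 beta plus TNF-alpha plus IFN-gamma mixture; protective hits raise ATP signal compared with cytokine alone wells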
[4] = Luminescence Cell-Based Dose Retest to Confirm Inhibitors of Cancer Stem Cells. [Related pubchem assays (depositor defined):AID2717, AID2721]; format: functional; conditions: Homo sapiens
[5] = viability of PTEN-deleted HCT116 cells – cell-based, HCT116 PTEN knockout, dose response (AID 1047); format: functional;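 note: HCT116 colon tumor cells with PTEN knocked out; cells exposed to compound for 60 hours before readout; potency for loss of cell viability measured by luminescence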
[6] = viability of HCT116 lacking mutant beta-catenin – cell-based, human colon tumor, dose response (AID 1045); format: functional;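 note: HCT116 colon tumor cells with beta catenin knocked out; cells exposed to compound for 60 hours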
H9c2 = assay: cells; format: functional, cell-based; conditions: Rattus norvegicus, H9c2, Myocardium;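 note: confirmatory concentration-response retest of ultra-high-throughput screening hits for modulation of myocardial damage; cell death induced by hydrogen peroxide oxidative stress; compound pretreatment for 60 min then peroxide exposure for 2 h; potency is for protecting the cells against peroxide damage rather than for killing them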
[7] = target: T3, Polyadenylate-binding protein 1 (Homo sapiens, UniProt P11940); assay: MLLE domain peptide-binding blockers, IC50 – biochemical, fluorescence polarization, FITC-PAM2 peptide, dose response (AID 602259); format: functional; conditions: read-out: IC50_Mean
[8] = target: T3, Polyadenylate-binding protein 1; assay: MLLE binding blockers, Cy5 peptide tracer – biochemical, fluorescence polarization, Cy5-PAM2 peptide, secondary, miRNA deadenylation inhibitor project, dose response (AID 602260); format: functional; conditions: read-out: IC50_Mean
[9] = NIH3T3 cell viability loss – ATP luminescence, mouse fibroblasts, counter-screen, dose response (AID 2010); format: functional, cell-based;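 note: cells exposed to compound for about 90 hours before reading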
[10] = Trypanosoma cruzi growth suppression in host cells – NIH3T3 host cells, beta-gal luminescence, confirmation (AID 2044); format: functional, cell-based;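 note: intracellular parasites grown in NIH/3T3 mouse fibroblasts as host cells; luminescent beta-galactosidase reporter signal from transgenic T. cruzi replicating inside host cells; inhibitors lower the luminescence signal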
[11] = target: T2, Heat shock factor protein 1; assay: decrease of HSF1-responsive luciferase luminescence – cell-based, NIH3T3, dose retest, confirmation (AID 2382); format: functional;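 note: NIH3T3 fibroblasts with HSF1-driven luciferase reporter stressed by proteasome inhibitor MG132; luminescence from HSF1-driven luciferase expression after 8 hours of MG132 stress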

T3 sequence (P11940 whole entry, the tested form may be a part): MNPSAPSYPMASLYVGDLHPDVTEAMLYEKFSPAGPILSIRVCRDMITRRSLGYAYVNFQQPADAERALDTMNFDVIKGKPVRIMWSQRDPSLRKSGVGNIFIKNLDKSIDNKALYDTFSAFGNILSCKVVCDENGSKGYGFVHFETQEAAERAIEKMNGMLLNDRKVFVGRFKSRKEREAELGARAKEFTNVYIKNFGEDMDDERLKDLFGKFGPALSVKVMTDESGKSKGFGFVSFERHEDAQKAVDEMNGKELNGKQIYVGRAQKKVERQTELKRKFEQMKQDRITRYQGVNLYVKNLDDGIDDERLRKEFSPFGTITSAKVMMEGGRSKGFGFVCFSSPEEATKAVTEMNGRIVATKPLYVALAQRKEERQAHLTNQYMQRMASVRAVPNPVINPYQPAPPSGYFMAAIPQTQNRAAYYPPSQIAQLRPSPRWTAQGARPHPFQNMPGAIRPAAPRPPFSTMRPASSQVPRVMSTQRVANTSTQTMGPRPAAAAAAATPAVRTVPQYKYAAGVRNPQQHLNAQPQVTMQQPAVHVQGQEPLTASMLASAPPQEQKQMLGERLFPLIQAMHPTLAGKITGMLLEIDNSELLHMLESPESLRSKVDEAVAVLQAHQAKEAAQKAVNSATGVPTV

Which results are given for `O=C(NCN1CCCCC1)c1cnccn1`?
IC50 [1]: > 47.1 µM (inactive); EC50 [2]: > 53 µM (inactive)

Which EC50 [3] does the source give for `NC(=O)c1nsc(C(=O)N(c2ccccc2)C(C(=O)NCC2CCCO2)c2cccs2)c1N` (centres undefined) here?
Its EC50 is > 260 µM (inactive).

Which EC50 [3] does the source give for `COc1ccc(/C=C/C(=O)C23CC4CC(CC(C4)C2)C3)cc1CN1CCOCC1` here?
Its EC50 is 46 µM (active).

With `CCC(C)c1ccc(OCCn2ccnc2)cc1` (centres undefined) as the compound, how does the IC50 (cells) read?
The IC50 was 22.6 µM (active).

What does the source list for `CCN(CC)CCNc1ncnc2c1sc1nc(N3CCOCC3)c3c(c12)CC(C)(C)SC3`?
AC50 (INS1): 12.5 µM (active); AC50 [4]: 8.39 µM (active); EC50 [5]: 8.46 µM (active); EC50 [6]: 7.85 µM (active)

Which IC50 (cells) does the source give for `CCOC(=O)COc1cc([N+](=O)[O-])cc2cccnc12` here?
Its IC50 is 46.4 µM (active).

Which IC50 [1] does the source give for `N#Cc1ccc(NC(=O)COC(=O)CSc2nnc(-c3ccc(Cl)cc3)o2)cc1` here?
The IC50 was > 47.1 µM (inactive).

And the EC50 [2]?
The EC50 was > 53 µM (inactive).

For `CCOC(=O)c1c(C)c(C(=O)Nc2ccc3c(c2)OCO3)c(C)n1C`, which EC50 [3] is on record?
Its EC50 is > 260 µM (inactive).

For `CC(=O)Nc1cccc(NC(=O)CSc2ccc(-c3ccccn3)nn2)c1`, which IC50 (H9c2) is on record?
The IC50 was 24.5 µM (active).

Which IC50 [7] does the source give for `COCCCNc1nc2ccccc2nc1NS(=O)(=O)c1cccc(Cl)c1` here?
Its IC50 is > 66 µM (inactive).

What about the IC50 [8] of the same compound?
Its IC50 is > 66 µM (inactive).

Which IC50 (H9c2) does the source give for `COc1cccc(C(=O)CSc2nnc(-c3cc(OC)c(OC)c(OC)c3)o2)c1` here?
The IC50 was > 79 µM (inactive).

For `CSc1ccc(C2C(C#N)=C(N)N(c3ccccc3)C3=C2C(=O)CCC3)cc1` (centres undefined), which EC50 [3] is on record?
Its EC50 is 27 µM (active).

With `Cc1c(C(=O)NCC2COc3ccccc3O2)oc2ccc(S(=O)(=O)N3CCOCC3)cc12` (centres undefined) as the compound, how does the IC50 (H9c2) read?
Its IC50 is > 79 µM (inactive).

For `O=c1oc2ccccc2c2c1nc(C(F)(F)F)n2-c1ccccc1`, which IC50 (cells) is on record?
The IC50 was 11.4 µM (active).

With `O=C(c1ccco1)N1CCN(C(=O)c2cc(-c3ccncc3)nc3ccc(Br)cc23)CC1` as the compound, how does the EC50 [9] read?
The EC50 was > 60 µM (not active).

What about the IC50 (H9c2) of the same compound?
The IC50 was 7.04 µM (active).

What about the EC50 [10] of the same compound?
The EC50 was 3.83 µM (active).

With `CCOC(=O)C(C(=O)OCC)C(Nc1ccc(Br)cc1)c1ccccc1` (centres undefined) as the compound, how does the AC50 [4] read?
Its AC50 is 8.85 µM (active).

And the EC50 [5]?
Its EC50 is 276 µM (active).

And the EC50 [3]?
The EC50 was 15.2 µM (active).

Which IC50 (H9c2) does the source give for `CC(C)(C)C(=O)Nc1cccc(-c2nnc(-c3cccc(NC(=O)C(C)(C)C)c3)o2)c1` here?
The IC50 was > 79 µM (inactive).

With `O=C1NC(c2ccc(Cl)c([N+](=O)[O-])c2)Nc2ccccc21` (centres undefined) as the compound, how does the IC50 (H9c2) read?
Its IC50 is 21.9 µM (active).

What does the source list for `Cc1cccc(-n2c(SCC(=O)N3CC(=O)Nc4ccccc43)nc3ccccc3c2=O)c1C`?
IC50 [1]: > 47.1 µM (inactive); EC50 [2]: > 53 µM (inactive)

With `O=C(CCc1nc(O)c2ccccc2n1)NCc1ccco1` as the compound, how does the EC50 [11] read?
The EC50 was > 195 µM (not active).

And the IC50 (H9c2)?
The IC50 was > 79 µM (inactive).

With `COc1ccc(C(=O)COC(=O)CCNS(=O)(=O)c2ccc(NC(C)=O)cc2)c(OC)c1` as the compound, how does the IC50 [1] read?
The IC50 was > 47.1 µM (inactive).

And the EC50 [2]?
Its EC50 is > 53 µM (inactive).

What does the source list for `CS(=O)(=O)N(CC(=O)N1CCN(Cc2ccc3c(c2)OCO3)CC1)Cc1ccc(Cl)cc1`?
EC50 [5]: 497 µM (active); EC50 [6]: 77.1 µM (active)

For `CCC(Sc1nnc2c3ccccc3n(CC)c2n1)C(=O)Nc1sc2c(c1C#N)CCCC2` (centres undefined), which EC50 [5] is on record?
The EC50 was 11.7 µM (active).

And the EC50 [6]?
The EC50 was 10.4 µM (active).

For `CCN(CC)C(=O)c1c(C)nc2ccccn12`, which IC50 [1] is on record?
Its IC50 is > 47.1 µM (inactive).

And the EC50 [2]?
Its EC50 is > 53 µM (inactive).

With `C=CCn1c(SCC(=O)Nc2c(C)cccc2C)nnc1-c1ccncc1` as the compound, how does the IC50 [1] read?
The IC50 was > 47.1 µM (inactive).

What about the EC50 [2] of the same compound?
Its EC50 is > 53 µM (inactive).

With `COc1ccc(-c2nc3c(c4nnc(SC(C)C(=O)Nc5ccccc5)n24)COC(C)(C)C3)cc1` (centres undefined) as the compound, how does the EC50 [5] read?
The EC50 was 9.44 µM (active).

What about the EC50 [6] of the same compound?
The EC50 was 8.77 µM (active).
